ChEMBL document CHEMBL1152536, “Molecular modeling of human acidic mammalian chitinase in complex with the natural-product cyclopentapeptide chitinase inhibitor argifin” (Bioorg Med Chem, 2009)

Molecular target: Acidic mammalian chitinase (Homo sapiens, UniProt Q9BZP6)
Assay: Inhibition of human acidic mammalian chitinase

Acidic mammalian chitinase, sequence (Q9BZP6 whole entry): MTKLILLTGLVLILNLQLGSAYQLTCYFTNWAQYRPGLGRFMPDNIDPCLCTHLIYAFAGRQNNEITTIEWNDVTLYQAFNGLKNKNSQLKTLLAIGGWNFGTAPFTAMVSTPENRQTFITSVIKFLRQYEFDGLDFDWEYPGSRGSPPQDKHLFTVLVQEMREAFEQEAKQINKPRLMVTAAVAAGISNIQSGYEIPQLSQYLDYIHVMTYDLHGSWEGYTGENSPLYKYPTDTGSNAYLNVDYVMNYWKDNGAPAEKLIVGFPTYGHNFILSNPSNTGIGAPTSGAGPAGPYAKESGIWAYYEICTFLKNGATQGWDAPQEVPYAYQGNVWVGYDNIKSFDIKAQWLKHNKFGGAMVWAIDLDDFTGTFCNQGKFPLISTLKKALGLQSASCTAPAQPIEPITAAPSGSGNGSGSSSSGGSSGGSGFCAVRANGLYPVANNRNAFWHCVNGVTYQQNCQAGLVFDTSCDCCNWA

CNC(=O)NC(=N)NCCC[C@@H]1NC(=O)[C@@H](C)NC(=O)C[C@@H](C(=O)O)NC(=O)C[C@@H](C(=O)O)NC(=O)[C@H](Cc2ccccc2)N(C)C1=O [ARGIFIN]
IC50: 4.5 µM
